Consider six molecules from US12616738B2, “Solid compositions comprising a GLP-1 agonist and a salt of N-(8-(2-hydroxybenzoyl)amino)caprylic acid” (Novo Nordisk A/S, priority 2018, dated 2026).

Series [1] is described as follows: Assay I: SNAC solubility in combination with selected hydrotropes. As to conditions: for Fold increase in solubility: SNAC solubility relative to SNAC control (no hydrotrope), hydrotrope 200 mg/mL, pH 6; for SNAC concentration: hydrotrope 200 mg/mL in ultrapure water, pH 6, 200 mg SNAC added, 4 hours at room temperature, RP-HPLC.
The conditions of series [2]: pH 6.
For series [3] the following is noted: pH 6. This is another data set of the same source.

Like-named read-outs stand apart in the source and are kept apart here.

For `O=C(O[C@@H]1Cc2c(O)cc(O)cc2O[C@@H]1c1cc(O)c(O)c(O)c1)c1cc(O)c(O)c(O)c1` [Epigallocatechin gallate], in series [1], the “Fold increase in solubility” value turned out to be 9.6 fold and the SNAC concentration stood at 5.66 mg/mL. Consider `CN(C)C(=O)c1ccccc1` [N,N dimethyl benzamide], for which, in series [1], the “Fold increase in solubility” value amounted to 38 fold and the SNAC concentration was determined as 22.46 mg/mL. Turning to `O=C([O-])c1ccccc1O.[Na+]` [Sodium salicylate], in series [2], the “Fold increase in solubility” value is 2.7 fold and the SNAC concentration came out at 1.59 mg/mL. Regarding `NC(=O)c1cccnc1` [Nicotinamide], in series [3], the “effect on SNAC solubility (FIG. 1)” value is recorded as “dose dependent effect”. As to `NC(N)=O` [Urea], in series [1], the “Fold increase in solubility” value worked out at 1.3 fold and the SNAC concentration amounted to 0.77 mg/mL. Take `CCN(CC)C(=O)c1cccnc1` [N,N diethyl nicotinamide]: in series [1], the “Fold increase in solubility” value amounted to 7.8 fold and the SNAC concentration is recorded as 4.58 mg/mL.
